Measurements: patent US20180243304A1, “PHARMACEUTICAL COMBINATIONS COMPRISING (A) THE CYCLIN DEPENDENT KINASE 4/6 (CDK4/6) INHIBITOR LEE011 (=RIBOCICLIB), AND (B) THE EPIDERMAL GROWTH FACTOR RECEPTOR (EGFR) INHIBITOR ERLOTINIB, FOR THE TREATMENT OR PREVENTION OF CANCER” (Novartis AG, priority 2015, published 2018)
pIC50: −log10 of the molar value.

Experiments:
LoVo = experiment: Cell proliferation (cell count by microscopy), LoVo; assay type: cell-based; details: Homo sapiens; LoVo (KRAS), 96 h treatment, single agent tested 13 nM-10 μM; 50% of cell counts relative to DMSO
Excerpt: (§1) The debris counts were subtracted from raw nuclei counts.
(§2) The model input were inhibition values per drug dose: […]

GP2d = experiment: Cell proliferation (cell count by microscopy), GP2d; assay type: cell-based; details: GP2d (KRAS, PIK3CA), 72 h treatment, single agent tested 13 nM-10 μM; 50% of cell counts relative to DMSO
Excerpt: as §1, §2

LS-180 = experiment: Cell proliferation (cell count by microscopy), LS-180; assay type: cell-based; details: Homo sapiens, LS180; LS-180 (KRAS, PIK3CA), 72 h treatment, single agent tested 13 nM-10 μM; 50% of cell counts relative to DMSO
Excerpt: as §1, §2

DLD-1 = experiment: Cell proliferation (cell count by microscopy), DLD-1; assay type: cell-based; details: Homo sapiens; DLD-1 (KRAS, PIK3CA), 72 h treatment, single agent tested 13 nM-10 μM; 50% of cell counts relative to DMSO
Excerpt: as §1, §2

COLO-320 = experiment: Cell proliferation (cell count by microscopy), COLO-320; assay type: cell-based; details: Homo sapiens; COLO-320 (no driver mutation listed), 72 h treatment, single agent tested 13 nM-10 μM; 50% of cell counts relative to DMSO
Excerpt: as §1, §2

SW837 = experiment: Cell proliferation (cell count by microscopy), SW837; assay type: cell-based; details: Homo sapiens; SW837 (KRAS), 72 h treatment, single agent tested 13 nM-10 μM; 50% of cell counts relative to DMSO
Excerpt: as §1, §2

SW480 = experiment: Cell proliferation (cell count by microscopy), SW480; assay type: cell-based; details: Homo sapiens; SW480 (KRAS), 72 h treatment, single agent tested 13 nM-10 μM; 50% of cell counts relative to DMSO
Excerpt: as §1, §2

HCT-116 = experiment: Cell proliferation (cell count by microscopy), HCT-116; assay type: cell-based; details: Homo sapiens; HCT-116 (KRAS, PIK3CA), 72 h treatment, single agent tested 13 nM-10 μM; 50% of cell counts relative to DMSO
Excerpt: as §1, §2

LIM2551 = experiment: Cell proliferation (cell count by microscopy), LIM2551; assay type: cell-based; details: LIM2551 (BRAF, PIK3CA), 72 h treatment, single agent tested 13 nM-10 μM; 50% of cell counts relative to DMSO
Excerpt: as §1, §2

COLO-205 = experiment: Cell proliferation (cell count by microscopy), COLO-205; assay type: cell-based; details: Homo sapiens; COLO-205 (BRAF), 72 h treatment, single agent tested 13 nM-10 μM; 50% of cell counts relative to DMSO
Excerpt: as §1, §2

HT-29 = experiment: Cell proliferation (cell count by microscopy), HT-29; assay type: cell-based; details: Homo sapiens; HT-29 (BRAF, PIK3CA), 72 h treatment, single agent tested 13 nM-10 μM; 50% of cell counts relative to DMSO
Excerpt: as §1, §2

RKO = experiment: Cell proliferation (cell count by microscopy), RKO; assay type: cell-based; details: Homo sapiens; RKO (BRAF, PIK3CA), 72 h treatment, single agent tested 13 nM-10 μM; 50% of cell counts relative to DMSO
Excerpt: as §1, §2

OUMS-23 = experiment: Cell proliferation (cell count by microscopy), OUMS-23; assay type: cell-based; details: OUMS-23 (BRAF), 72 h treatment, single agent tested 13 nM-10 μM; 50% of cell counts relative to DMSO
Excerpt: as §1, §2

LS411N = experiment: Cell proliferation (cell count by microscopy), LS411N; assay type: cell-based; details: Homo sapiens, LS-411N; LS411N (BRAF), 72 h treatment, single agent tested 13 nM-10 μM; 50% of cell counts relative to DMSO
Excerpt: as §1, §2

[1] = test system: 15 colorectal cancer cell lines; details: single agent, 13 nM-10 μM
Procedure: The compounds were dissolved in 100% DMSO (Sigma, Catalog number D2650) at concentrations of 20 mM and stored at -20° C. until use.
All cell line media were supplemented with 10% FBS (HyClone, Catalog number SH30071.03).
Cell lines were cultured in 37° C. and 5% CO2 incubator and expanded in T-75 flasks. In all cases cells were thawed from frozen stocks, expanded through ≤1 passage using 1:3 dilutions, counted and assessed for viability using a ViCell counter (Beckman-Coulter) prior to plating. […] All cell lines were determined to be free of mycoplasma contamination as determined by a PCR detection methodology performed at Idexx Radil (Columbia, Mo., USA) and correctly identified by detection of a panel of SNPs.
The compound's effect on cell proliferation was calculated from the cell counts of the treatments relative to the cell counts of the negative control (DMSO), in FIG. 1 denoted as ‘Normalized cell count’ (=‘xnorm’) on the y-axis. […] The model input were inhibition values per drug dose:
I=1-xnorm • I: Inhibition • xnorm: normalized cell count (median of three replicates) […]
C=ΣConc(Idata*(Idata−Imodel)) • Idata: measured inhibition • Imodel: inhibition according to HSA null hypothesis
Robust combination z-scores (zC) were calculated as the ratio of the treatments' combination scores C and the median absolute deviation (mad) of non-interacting combinations: […]

C#Cc1cccc(Nc2ncnc3cc(OCCOC)c(OCCOC)cc23)c1 [Erlotinib, N-(3-ethynylphenyl)-6,7-bis(2-methoxyethoxy)quinazolin-4-amine]
pIC50 (LoVo): 6.15 | pIC50 (GP2d): 5.05 | pIC50 (LS-180): < 5.00 | pIC50 (DLD-1): 5.15 | pIC50 (COLO-320): 5.16 | pIC50 (SW837): < 5.00 | pIC50 (SW480): < 5.00 | pIC50 (HCT-116): < 5.00 | pIC50 (LIM2551): < 5.00 | pIC50 (COLO-205): < 5.00 | pIC50 (HT-29): < 5.00 | pIC50 (RKO): < 5.00 | pIC50 (OUMS-23): < 5.00 | pIC50 (LS411N): < 5.00 | cell lines in which IC50s were achieved for the concentration range tested [1]: 5/15
